Assay results as given in patent EP4674852A1, “PREPARATION METHOD FOR AND USE OF DIHYDROTHIENOPYRIMIDINE DERIVATIVE” (Innovstone Therapeutics Limited, priority 2023, dated 2024).

What follows are molecules tested on LPS-induced TNF-α secretion from human PBMC (assay: Inhibition of LPS-induced TNF-α secretion from human PBMC). Details: hPBMC, LPS 10 ng/mL, 24 hours.
Format: cell-based
Experimental: Assay 3: Test of the inhibition of compounds on LPS-induced TNF-α secretion from human PBMC
Frozen hPBMC cell stock solution was rapidly thawed in a 37°C water bath. The cells were transferred to complete medium (RPMI 1640+10% FBS+1% P/S). The suspension was centrifuged at 1000 rpm for 5 minutes. The supernatant was discarded, and the cells were resuspended in 1 mL complete medium (RPMI 1640 + 10% FBS + 1% P/S). After gentle pipetting to mix, the cells were counted using trypan blue staining. Cells were seeded into a 96-well cell culture plate at 5×10^4 cells/well, with 100 µL/well of complete medium. Test compounds were prepared at 4×the final concentration and added to the cells at 50 µL/well, followed by a 30-minute pre-incubation. Control wells without compound were simultaneously set up. LPS was prepared as a 4×solution to achieve a final stimulation concentration of 10 ng/mL and added to the cells at 50µL/well. Control wells without LPS were simultaneously set up. The incubation of cells was continued and 10% of supernatant was collected for detection after 24 hours. The collected supernatant was detected according to the Human TNF-α kit of R&D Company (VAL105G). The inhibitory activities of the compounds of the present invention on LPS-induced TNF-α secretion from human PBMC were determined according to the above method. […]

Row | Compound | IC50 [nM]
1 | COC1(c2ccc(Cl)cc2)CN(c2nc3c(c(NC4(CO)CCC4)n2)[S+]([O-])CC3)C1 (racemic) [Compound 83, (R/S)-2-(3-(4-chlorophenyl)-3-methoxyazetidin-1-yl)-4-((1-(hydroxymethyl)cyclobutyl)amino)-6,7-dihydrothieno[3,2-d]pyrimidine 5-oxide] | 1.35
2 | [O-][S+]1CCc2nc(N3CCC(c4ncc(Cl)cn4)CC3)nc(NC3(CO)CCC3)c21 (stereo not shown) [Control 1, reference compound] | 146

Each molecule was assayed against T1, PDE4D2 (Homo sapiens, UniProt Q08499) (assay: In vitro PDE4D2 enzyme inhibitory activity (AMP-Glo), reported as PDE4D2/PDE4B2 selectivity). Details: Ratio of IC50 value of PDE4D2 enzyme inhibition/IC50 value of PDE4B2 enzyme inhibition.
T1 construct: purchased BPS bioscience
T1 sequence (Q08499 303-809 limits assumed): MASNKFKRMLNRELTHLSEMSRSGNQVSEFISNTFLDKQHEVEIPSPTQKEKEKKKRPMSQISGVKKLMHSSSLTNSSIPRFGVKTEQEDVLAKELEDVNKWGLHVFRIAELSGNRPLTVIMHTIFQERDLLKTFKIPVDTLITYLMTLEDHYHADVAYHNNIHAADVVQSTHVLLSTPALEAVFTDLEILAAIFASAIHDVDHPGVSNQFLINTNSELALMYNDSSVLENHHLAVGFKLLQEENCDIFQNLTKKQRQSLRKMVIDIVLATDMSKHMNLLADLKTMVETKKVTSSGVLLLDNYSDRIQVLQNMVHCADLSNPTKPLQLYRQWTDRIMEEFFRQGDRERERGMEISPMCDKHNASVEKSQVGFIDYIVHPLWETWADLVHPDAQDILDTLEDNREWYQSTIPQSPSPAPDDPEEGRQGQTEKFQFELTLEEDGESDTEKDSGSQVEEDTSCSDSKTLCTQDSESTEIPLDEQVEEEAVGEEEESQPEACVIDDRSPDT
Format: biochemical
Experimental: Assay 1: In vitro evaluation of inhibitory activities of the compounds against PDE4B2 and PDE4D2 enzymes 1. Assay materials and instruments:
2. Assay procedure: • 2.1 Compound preparation and treatment • 2.1.1 Preparing stock solutions of compounds in DMSO: Compound powders were dissolved in 100% DMSO to produce 10 mM stock solutions, and oscillated in a shaker until the compounds were completely dissolved. • 2.1.2 Storing stock solutions of compounds in DMSO: Stock solutions of compounds in DMSO were stored in a desiccator at room temperature. • 2.1.3 Preparing working stock solutions: a) A solution of Roflumilast (reference compound) in DMSO was diluted to 60 µM, and then serially diluted 4-fold into 10 concentration gradients. B) The solutions of the test compounds in DMSO were diluted to 200 µM, and then serially diluted 3-fold. C) A 200X positive control (60 µM Roflumilast) and a 200X vehicle control (100% DMSO) were prepared. D) The assay plate was centrifuged at 1000 rpm for 1 minute. • 2.2 Compound testing • (1) 20 nL of compound dilution solutions were transferred with Echo 550 into each well of the assay plate. • (2) The assay plate was sealed and centrifuged at 1000 rpm for 1 minute. • (3) 2X PDE4B2/PDE4D2 was prepared in an ice-cold PDE assay buffer. • (4) 2 µL of 2X PDE4B2/PDE4D2 was added to each well of the assay plate prepared in step 2. • (5) The assay plate was sealed and allowed to equilibrate at room temperature for 10 minutes. • (6) 2X Cyclic-3',5'-AMP was prepared in a PDE assay buffer. • 7) 2µL of 2X Cyclic-3',S'-AMP (prepared in step 6) was added to each well of the assay plate (prepared in step 5) to initiate the reaction. The plate was incubated at room temperature for 60 minutes. • 8) 4µL AMP-Glo Reagent I was added, and the plate was incubated at room temperature for 60 minutes. • 9) 8µL AMP detection reagent was added. The plate was incubated at room temperature for 60 minutes. • 10) The RLU signal was read on an Envision 2105 plate reader.

Row | Compound | PDE4D2/PDE4B2 selectivity
3 | [2H]C([2H])([2H])OC1(c2ccc(Cl)cc2)CN(c2nc3c(c(NC4CCOCC4)n2)[S+]([O-])CC3)C1 (racemic) [Compound 94, (R/S)-2-(3-(4-chlorophenyl)-3-(methoxy-d3)azetidin-1-yl)-4-((tetrahydro-2H-pyran-4-yl)amino)-6,7-dihydrothieno[3,2-d]pyrimidine 5-oxide] | B (2<B≤5)
4 | [O-][S+]1CCc2nc(N3Cc4ccc(OC(F)F)cc4C3)nc(NC3(CO)CCC3)c21 (racemic) [Compound 87, (R/S)-2-(5-(difluoromethoxy)isoindolin-2-yl)-4-((1-(hydroxymethyl)cyclobutyl)amino)-6,7-dihydrothieno[3,2-d]pyrimidine 5-oxide] | B (2<B≤5)
5 | COC1(c2ccc(Cl)c(F)c2)CN(c2nc3c(c(NC4CCOCC4)n2)[S+]([O-])CC3)C1 (racemic) [Compound 86, (R/S)-2-(3-(4-chloro-3-fluorophenyl)-3-methoxyazetidin-1-yl)-4-((tetrahydro-2H-pyran-4-yl)amino)-6,7-dihydrothieno[3,2-d]pyrimidine 5-oxide] | B (2<B≤5)
6 | COc1cc(C2(O)CN(c3nc4c(c(NC5(CO)CCC5)n3)[S+]([O-])CC4)C2)ccc1Cl (racemic) [Compound 3, (R/S)-2-(3-(4-chloro-3-methoxyphenyl)-3-hydroxyazetidin-1-yl)-4-((1-(hydroxymethyl)cyclobutyl)amino)-6,7-dihydrothieno[3,2-d]pyrimidine 5-oxide] | B (2<B≤5)
7 | COC1(c2ccc(N3CCCC3)cc2)CN(c2nc3c(c(NC4(CO)CCC4)n2)[S+]([O-])CC3)C1 (racemic) [Compound 107, (R/S)-4-((1-(hydroxymethyl)cyclobutyl)amino)-2-(3-methoxy-3-(4-(pyrrolidin-1-yl)phenyl)azetidin-1-yl)-6,7-dihydrothieno[3,2-d]pyrimidine 5-oxide] | B (2<B≤5)
8 | COC1(c2ccc(Cl)c(F)c2)CN(c2nc3c(c(NC4(CO)CCC4)n2)[S+]([O-])CC3)C1 (racemic) [Compound 82, (R/S)-2-(3-(4-chloro-3-fluorophenyl)-3-methoxyazetidin-1-yl)-4-((1-(hydroxymethyl)cyclobutyl)amino)-6,7-dihydrothieno[3,2-d]pyrimidine 5-oxide] | A (5<A≤10)

The next lines start with the values.

Row | PDE4D2/PDE4B2 selectivity | Compound
9 | B (2<B≤5) | COC1(c2ccc(OCC3CC3)cc2)CN(c2nc3c(c(NC4(CO)CCC4)n2)[S+]([O-])CC3)C1 (racemic) [Compound 106, (R/S)-2-(3-(4-(cyclopropylmethoxy)phenyl)-3-methoxyazetidin-1-yl)-4-((1-(hydroxymethyl)cyclobutyl)amino)-6,7-dihydrothieno[3,2-d]pyrimidine 5-oxide]
10 | B (2<B≤5) | [O-][S+]1CCc2nc(N3CC=C(c4ccc(OC(F)F)cc4)C3)nc(NC3(CO)CCC3)c21 (racemic) [Compound 14, (R/S)-2-(3-(4-(difluoromethoxy)phenyl)-2,5-dihydro-1H-pyrrol-1-yl)-4-((1-(hydroxymethyl)cyclobutyl)amino)-6,7-dihydrothieno[3,2-d]pyrimidine 5-oxide]
11 | A (5<A≤10) | COC1(c2ccc(Cl)cc2)CN(c2nc3c(c(NC4(CO)CCC4)n2)[S+]([O-])CC3)C1 (racemic) [Compound 83, (R/S)-2-(3-(4-chlorophenyl)-3-methoxyazetidin-1-yl)-4-((1-(hydroxymethyl)cyclobutyl)amino)-6,7-dihydrothieno[3,2-d]pyrimidine 5-oxide]
12 | C (C≤2) | [O-][S+]1CCc2nc(N3CCC(c4ncc(Cl)cn4)CC3)nc(NC3(CO)CCC3)c21 (stereo not shown) [Control 1, reference compound]
13 | B (2<B≤5) | COC1(c2ccc(Cl)cc2)CN(c2nc3c(c(NC4CCOCC4)n2)[S+]([O-])CC3)C1 (racemic) [Compound 88, (R/S)-2-(3-(4-chlorophenyl)-3-methoxyazetidin-1-yl)-4-((tetrahydro-2H-pyran-4-yl)amino)-6,7-dihydrothieno[3,2-d]pyrimidine 5-oxide]
14 | B (2<B≤5) | COC1(c2ccc(OC(F)F)cc2)CN(c2nc3c(c(NC4(CO)CCC4)n2)[S+]([O-])CC3)C1 (racemic) [Compound 105, (R/S)-2-(3-(4-(difluoromethoxy)phenyl)-3-methoxyazetidin-1-yl)-4-((1-(hydroxymethyl)cyclobutyl)amino)-6,7-dihydrothieno[3,2-d]pyrimidine 5-oxide]
15 | B (2<B≤5) | COc1ccc(C2(OC)CN(c3nc4c(c(NC5CCOCC5)n3)[S+]([O-])CC4)C2)cc1 (racemic) [Compound 108, (R/S)-2-(3-methoxy-3-(4-methoxyphenyl)azetidin-1-yl)-4-((tetrahydro-2H-pyran-4-yl)amino)-6,7-dihydrothieno[3,2-d]pyrimidine 5-oxide]
16 | A (5<A≤10) | [2H]C([2H])([2H])OC1(c2ccc(Cl)cc2)CN(c2nc3c(c(NC4(CO)CCC4)n2)[S+]([O-])CC3)C1 (racemic) [Compound 92, (R/S)-2-(3-(4-chlorophenyl)-3-(methoxy-d3)azetidin-1-yl)-4-((1-(hydroxymethyl)cyclobutyl)amino)-6,7-dihydrothieno[3,2-d]pyrimidine 5-oxide]
